System: human IgG (polyclonal antirhamnose antibodies)
Test: BLI monitoring of covalent reaction with human IgG (Figure 4B)
Assay type: binding
Settings: 10 μM cARM, 230 μM human IgG, up to 25 h
Source text: The design of rhamnose-SO2F-cARM was again supported by in-silico docking and predicted to preorganize electrophilic SO2F proximal to lysine 104 and serine 53 of the anti-23F heavy chain as well as tyrosine 32 of the light chain (Figure S3). To evaluate the capacity of rhamnose-SO2F-cARMs to specifically label polyclonal antirhamnose antibodies, a tool cARM with a biotin TBD was synthesized (compound 12, Figure 4A, Scheme S5). As an orthogonal kinetics assay to fluorescent gels, tool compound 12 labeling kinetics was first evaluated using an in-house BLI assay and compared to acyl imidazole cARM and ARM analogs. […] Solutions were immediately loaded onto streptavidin probes (Figure 4B, Figure S8). In this assay, rhamnose competition blocks noncovalent antirhamnose recruitment, thus the signal amplitude is directly proportional to the covalently labeled antibody product.
Figure 4 Selectivity and kinetic analysis of optimized Rha-SO2F-cARMs A. Chemical structures of tool compounds used in this study. B. cARM 12 (10 μM) was incubated with human IgG or BSA (230 μM) then diluted 8× with 100 mM competitor rhamnose spiked kinetics buffer and loaded onto streptavidin probes in BLI. The association plateau was plotted against time to yield the % labeled vs time covalent labeling curve C. Kinetic fluorescence SDS-PAGE assay similar to that in Figure 2D. […]

C[C@@H]1O[C@@H](OCc2cn(CCc3cn(C(=O)OCCOCCOCCOCCOCCOCCOCCOCCNC(=O)CCCC[C@@H]4SC[C@@H]5NC(=O)N[C@@H]54)cn3)nn2)[C@H](O)[C@H](O)[C@H]1O [compound 4]
progress of labeling reaction: still in the linear phase of the reaction
